The text below walks through data of patent publication US11351154B2, “Molecular genetic approach to treatment and diagnosis of alcohol and drug dependence” (University of Virginia Patent Foundation, priority 2011, dated 2022).

The test system of data set [1] is subjects of the ondansetron clinical trial (251 subjects). The experiment in a line: CART decision-tree subgroup analysis of ondansetron treatment effect on percentage heavy drinking. Format: in vivo, human. The settings on record: for E(Y|T=1), Y=phd base90-mean(phdweek): T=1(ondansetron). From the text: A decision tree is a structure that can be used to divide up a large collection of records into successively smaller sets of records by applying a sequence of simple decision rules. One advantage of decision tree is that the results can be easily interpreted. CART is a popular decision tree algorithm first published in Breiman et al 1984. CART starts by dividing data into 2 sub-groups (child nodes) that are homogeneous with respect to a particular target variable, in our case the target variable is the binary class label Z. By doing exhaustive search over all possible cutoffs for all possible candidate covariates, sub-groups are formed by identifying optimal split point for the optimal candidate covariate. Repeat the process recursively at each child node until one of the stopping criteria is met. In the end, CART prunes tree to smaller optimal size using cross-validation. After the final tree is determined, the class label (treatment) for “new subjects” is given by running them down the tree and identifying which terminal node they belong. The class label of the terminal node is formed by majority vote of cases in this node, that is if the proportion of class 1 in this node p>0.5, then the class label is 1, otherwise is 0. Let t denote the node, which is a region of the covariates space. A Split denoted by s on a numeric variable Xj take the form Xj<xji, where xji is a cut-off selected by trying all values of Xj in the data set as candidate split points. s splits the node t into left and right daughter nodes […]. The impurity function is used as a measure of node homogeneity. To calculate the impact of a split, compute increase in purity (or reduction in impurity) and choose a split that gives maximal value over all possible splits as the best splitter for node t. Gini criterion is the usual splitting criteria chosen by CART for categorical target. […] The full tree would not do the best job when applied to new dataset. The CART identifies candidate sub-trees through a process of repeated pruning. CART relies on a concept called adjusted error rate, AERα(T)=error rate(T)+α node count(T). This is a measure that increases each tree(T)'s misclassification rate on the training set by imposing a complexity penalty based on the number of final nodes in the tree. One can form a sequence of sub-trees of the full tree by varying the penalty value (cost complexity parameter), α and determining the tree that minimizes the adjusted error rate. After deleting the subjects with missing data, 251 subjects were included in the data analysis. Y=phd […]=(phd base90,Onage,[…], . . . , […]). There are total 21 genotypes. T=1(ondansetron) and T=0(placebo). The goal is to find a subgroup defined by X where the treatment effect is significant. After transforming this problem to a classification problem. CART was used to find the best subgroup with decision tree form.

Data set [2] concerns individuals in alcohol trials. The settings on record: naltrexone dose of 50 mg/day; cited from earlier work.
The test system of data set [3] is individuals who take topiramate. The settings on record: cited from earlier work.

Regarding `Cc1nccn1CC1CCc2c(c3ccccc3n2C)C1=O` (centres unmarked) [OND, 9-methyl-3-[(2-methyl-1H-imidazol-1-yl)methyl]-1,2,3,9-tetrahydrocarbazol-4-one], the “E(Y|T=1), Y=phd base90-mean(phdweek)” value in data set [1] (overall sample, 251 subjects) came out at 32.1%; in data set [1] (subgroup gen1=I (rs150226=AA or AG), 42 subjects), 50.9%; in data set [1] (subgroup gen2: rs1150226=GG, rs1176719=AA or AG, phd base90≥0.8663, 49 subjects), 37.6%; in data set [1] (subgroup gen (gen1 + gen2), 91 subjects) it was 43.0%. The “overall sample mean difference E(Y|T=1)−E(Y|T=0)” value in data set [1] (overall sample, ondansetron minus placebo) came out at 0.2%. Besides, the “sample mean difference E(Y|T=1)−E(Y|T=0)” value is on record as 28.7% in data set [1] (subgroup gen1=I (rs150226=AA or AG), ondansetron minus placebo); 15.0% in data set [1] (subgroup gen2: rs1150226=GG, rs1176719=AA or AG, phd base90≥0.8663, ondansetron minus placebo); 20.6% in data set [1] (subgroup gen (gen1 + gen2), ondansetron minus placebo).

As to `Cl.O=C1CC[C@@]2(O)[C@H]3Cc4ccc(O)c5c4[C@@]2(CCN3CC2CC2)[C@H]1O5` [naltrexone, 17-(Cyclopropylmethyl)-4,5a-epoxy-3,14-dihydroxymorphinan-6-one hydrochloride], the “individuals unable to tolerate the dose” value in data set [2] is listed as “about 15%”.

In the case of `CC1(C)O[C@@H]2[C@@H](CO[C@@]3(COS(N)(=O)=O)OC(C)(C)O[C@@H]23)O1` [topiramate, 2,3:4,5-Bis-O-(1-methylethylidene)-beta-D-fructopyranose sulfamate], the “cognitive impairment reported, share of individuals” value in data set [3] (general population) was 2.4%. For the same molecule, the “occurrence rate of cognitive impairment” value in data set [3] (substance abuse field) is “about 18.7%”.
